Test results taken from patent publication US7022719B2, “Preventing and reversing the formation of advance glycosylation endproducts” (Alteon, Inc., priority 1995, dated 2006).
Several values for one entry are separate records, joined by “and”; a condition that tells them apart may be missing. Equal entries are not always repeated. Where two headings read alike, the source gives them in different places.

Key:
[1] = test system: AGE-BSA crosslinked to collagen; assay: Cross-link Breaking Assay (sandwich enzyme immunoassay); assay type: biochemical; details: for Breaking Anti-AGE: anti-AGE antibody; for Breaking Anti-BSA: anti-BSA antibody
Description: The present invention also involves a novel sandwich enzyme immunoassay used to ascertain the ability of test compounds to “break” or reverse already formed advanced glycosylation endproducts by detecting the breaking of AGE (Advanced glycosylation endproduct) moieties from AGE-crosslinked protein. This assay comprises: • a) incubation of AGE-modified bovine serum albumin (AGE BSA) on collagen-coated wells of microtiter plates for a period of 2–6 hours' at a temperature of 37° C.; • b) washing of the wells with PBS-Tween; • c) application of the test compounds to the washed wells of step b; • d) incubation of the test compounds applied to the washed wells for an additional 12–24 hours at a temperature of about 37° C.; and • e) detection of the AGE-breaking using an antibody raised against AGE-ribonuclease or cross-link breaking with an antibody against BSA.
In order to ascertain the ability of the compounds of the instant invention to “break” or reverse already formed advanced glycosylation endproducts, a novel sandwich enzyme immunoassay was developed which detects breaking of AGE (Advanced glycosylation endproduct) moieties from AGE-crosslinked protein. The assay utilizes collagen-coated 96 well microtiter plates that are obtained commercially. […] Following an incubation period of 16 hours (37° C.) cross-link-breaking is detected using an antibody raised against AGE-ribonuclease or with an antibody against BSA. […] Details of the assay are as follows:
Methods Preparation of Solutions and Buffers • 1. AGE-BSA stock solutions were prepared as follows. Sodium phosphate buffer (0.4 M) was prepared by dissolving 6 grams of monobasic sodium phosphate in 100 ml of distilled water, 7 grams of dibasic sodium phosphate (0.4 M) in 100 ml of distilled water and adjusting the pH of the dibasic solution to 7.4 with the monobasic solution. Sodium azide (0.02 grams) was added per 100 ml volume to inhibit bacterial growth. The BSA solution was prepared as follows: 400 mg of Type V BSA (bovine serum albumin) was added for each ml of sodium phosphate buffer (above). A 400 mM glucose solution was prepared by dissolving 7.2 grams of dextrose in 100 ml of sodium phosphate buffer (above). The BSA and glucose solutions were mixed 1:1 and incubated at 37° C. for 12 weeks. The pH of the incubation mixture was monitored weekly and adjusted to pH 7.4 if necessary. After 12 weeks, the AGE-BSA solution was dialyzed against PBS for 48 hours with four buffer changes, each at a 1:500 ratio of solution to dialysis buffer. Protein concentration was determined by the micro-Lowry method. The AGE-BSA stock solution was aliquoted and stored at −20° C. […] Working solutions for crosslinking and breaking studies were prepared as follows. Test compounds were dissolved in PBS and the pH was adjusted to pH 7.4 if necessary. AGE-BSA stock solution was diluted in PBS to measure maximum crosslinking and in the inhibitor solution for testing inhibitory activity of compounds. The concentration of AGE-BSA necessary to achieve the optimum sensitivity was determined by initial titration of each lot of AGE-BSA. • 3. Wash buffer (“PBS-Tween”) was, prepared as follows. PBS was prepared by dissolving the following salts in one liter of distilled water: NaCl, 8 grams; KC1, 0.2 gram, KH2PO4. […] Tween-20 was added to a final concentration of 0.05% (vol/vol). • 4. Substrates for detection of secondary antibody binding were prepared by diluting the HRP substrate buffer 1:10 in distilled water and mixing with ABTS chromogen 1:50 just prior to use. Assay Procedures • 1. Biocoat plates were blocked with 300 μl of “Superbloc”. Plates were blocked for one hour at room temperature and were washed with PBS-Tween three times with the Dynatech platewasher before addition of test reagents. • 2. Each experiment was set up in the following manner. The first three wells of the Biocoat plate were used for the reagent blank.

[2] = test system: IgG crosslinked to circulating red blood cells; assay: RBC-IgG Assay in streptozotocin-induced diabetic rats; assay type: in vivo, rat; details: diabetic rats dosed orally at 10 mg/kg body weight; 19 days
Description: The test compounds are administered to the test animals either orally or intraperitoneally, and the blood samples are collected are tested at various times, e.g. 4, 7 or 19 days, after administration to assess efficacy.
Blood is collected from the rats in heparinized tubes and spun at 2000×g for 10 minutes, and the plasma carefully removed. Then, about 5 ml of PBS per ml blood is added, gently mixed, and then spun again. The supernatant is then removed by aspiration. The wash is then repeated two more times. Then, 0.2 to 0.3 ml of packed RBC is withdrawn from the bottom of the tube, using a pipette, and added to the PBS to make a 1 to 10 dilution. This dilution is then further diluted 1 to 25 and 1 to 50 in PBS. • B. Assay Set Up. • 1. Warm Superbloc to 37° C. • 2. Take a plate of Multiscreen-HA, 0.45 u. Cellulose ester membrane-sealed 96 well plate (Millipore MARAS45). • 3. Wet the wells with 100 μl of PBS. • 4. Add 300 μl of superblock to each well and incubate at 37° C. for one hour. • 5. Place the plate on the Millititer Vacuum holder, turn on the vacuum and press the plate down once for tight hold. The liquids in the wells will be suctioned off. Wash the wells with 300 μl of PBS-Tween 0.05%. • 6. Turn off the vacuum and add 100 μl of PBS to each well. • 7. […] Read OD of the solution collected in the Coming plate on Dynatech Plate reader Sample filter 1 and Ref. filter 4. • 17. […]

[3] = test system: cross-linking of glycated bovine serum albumin (AGE-BSA) to rat tail tendon collagen; assay: Cross-linking Inhibition Assay; details: for IC50: inhibition of AGE-BSA cross-linking to collagen-coated plate
Description: The following method was used to evaluate the ability of the compounds of the present invention to inhibit the cross-linking of glycated bovine serum albumin (AGE-BSA) to the rat tail tendon collagen-coated 96-well plate.
The blocking solution was removed from the wells by, washing the plate twice with PBS-'Tween 20 solution (0.05% Tween 20) using a NUNq-multiprobe or Dynatech ELISA-plate washer. Cross-linking of AGE-BSA (1 to 10 mg per well depending on the batch of AGE-BSA) to rat tail tendon collagen coated plate was performed with and without the testing ‘compound dissolved in PBS buffer at pH 7.4 at the desired concentrations by the, addition of 50 μl each of the AGE-BSA diluted in PBS or in the solution of test compound at 37° C. for 4 hours. Unbrowned BSA in PBS buffer with or without testing compound were added to the separate wells as the blanks. The un-cross-linked AGE-BSA was then removed by washing the wells three times with PBS-Tween buffer. The amount of AGE-BSA cross-linked to the tail tendon collagen-coated plate was then quantitated using a polyclonal antibody raised against AGE-RNase. After a one-hour incubation period, AGE antibody was removed by washing 4 times with PBS-Tween.
The bound AGE antibody was then detected with the addition of horseradish peroxidase-conjugated secondary antibody—goat anti-rabbit immunoglobulin and incubation for 30 minutes. […] The reaction was allowed for an additional 15 minutes and the absorbance was read at 410 nm in a Dynatech plate reader.

[4] = test system: tail tendon collagen; assay: CNBr peptide maps of tail tendon collagen from diabetic rats; assay type: biochemical, rat; details: tail tendon collagen of rats diabetic for 32 weeks, treated before cyanogen bromide digestion
[5] = test system: cross-linked AGE-BSA; assay: Breaking of AGE-BSA polymer gel (SDS-PAGE); assay type: biochemical; details: 10 mm, overnight at 37° C.
Description: BSA and glucose solutions (100 ml each) were mixed in the one liter Coming sterile flask, screw-capped tight and incubated at 56° C. without shaking. The bottle was opened once a week to remove aliquots for testing. Reaction was continued for 9 weeks when AGE-BSA polymer formation was observed.
Pieces of AGE-BSA gel was washed with PBS until no more protein was leached in the supernatant, blotted dry with paper towels. About 50 mg of the washed gel was incubated either with PBS or 10 mm 3-(2-phenyl-2-oxoethyl)thiazolium bromide (ALT 766) overnight at 37° C. The supernatants were analyzed by SDS-PAGE and stained with coommassie blue.

[6] = test system: aortic wall protein cross-linking; details: diabetic rats; cited from earlier work
[7] = test system: immunoglobulin trapping in the kidney; details: in vivo; cited from earlier work
[8] = test system: glomerular basement membrane thickness; details: streptozotocin-diabetic rat model; cited from earlier work
[9] = test system: red blood cells; details: in vivo; cited from earlier work
[10] = detection with anti-BSA antibody, read-out: IC50 (mM) Anti-BSA

Cc1c(CCO)sc[n+]1CC(=O)c1ccc2ccccc2c1.[Br-] [3-(2-(2′-naphthyl)-2-oxoethyl]-4-methyl-5-(2′-hydroxyethyl)-thiazolium bromide]
Breaking Anti-AGE ([1]; at 10 mM): 52% | Breaking Anti-BSA ([1]; at 10 mM): 61% | Percent Inhibition (RBC-IgG) [2]: 40 ± 24 @ 19 days % | Relative Cross-link Inhibition (at 10 mM) [3]: 61%

CCCCN(CCCC)C(=O)C[n+]1csc(CCO)c1C.[Br-] [3-(2-Dibutylamino-2-oxoethyl]-4-methyl-5-(2′-hydroxyethyl)-thiazolium bromide]
Breaking Anti-AGE ([1]; at 10 mM): 25% | Breaking Anti-BSA ([1]; at 10 mM): 38% | melting point: 78 to 80 °C | Relative Cross-link Inhibition (at 10 mM) [3]: 0.8% (10 mm)

COC(=O)C[n+]1csc(C)c1C.[Br-] [3-(2-methoxy-2-oxoethyl)-4,5-dimethylthiazolium bromide]
Breaking Anti-AGE ([1]; at 30 mM): 63% | Breaking Anti-BSA ([1]; at 30 mM): 47% | melting point: 184 to 185 °C (dec.) | IC50 [3]: 480 µM

O=C(C[n+]1ccsc1)c1ccccc1.[Br-] [3-(2-phenyl-2-oxoethyl) thiazolium bromide]
release of BSA from pre-formed AGE-mediated AGE-BSA/collagen complexes ([1]; AGE-BSA reacted with unmodified, native collagen): concentration-dependent release of BSA | Breaking Anti-AGE ([1]; concentration not given): 73% | Breaking Anti-BSA ([1]; concentration not given): 98% | IC50 ([1]; detection with anti-AGE antibody, read-out: IC50 (mM) Anti-AGE): 0.02 mM | IC50 [1, 10]: 0.014 mM | electrophoresis of CNBr-digested collagen after treatment [4]: indistinguishable from untreated, non-diabetic (control) collagen | breaking of cross-linked AGE-BSA (SDS-PAGE, FIG. 2) [5]: breaking of cross-linked AGE-BSA | IC50 [3]: 11100 µM

C=Cc1sc[n+](CC(=O)c2ccccc2)c1C.[Br-] [3-(2-phenyl-2-oxoethyl)-4-methyl-5-vinyl-thiazolium bromide]
Breaking Anti-AGE ([1]; at 1 mM): 62% | Breaking Anti-BSA ([1]; at 1 mM): 82% | IC50 [1, 10]: 0.1 mM | melting point: 176 to 177 °C

CC(C)(C)C(=O)C[n+]1ccsc1.[Br-] [3-(2-tert-butyl-2-oxoethyl)-thiazolium bromide]
Breaking Anti-AGE ([1]; at 10 mM): 28% | Breaking Anti-BSA ([1]; at 10 mM): 37% | melting point: 211 to 212 °C

Cc1c(CCO)sc[n+]1Cc1ccccc1[N+](=O)[O-].[Br-] [3-(2′-nitrobenzyl)-4-methyl-5-(2′-hydroxyethyl)-thiazolium bromide]
Breaking Anti-AGE ([1]; at 10 mM): 11% | Breaking Anti-BSA ([1]; at 10 mM): 13% | melting point: 215 to 216 °C

COc1cccc(C[n+]2csc(CCO)c2C)c1.[Cl-] [3-(3′-methoxybenzyl)-4-methyl-5-(2′-hydroxyethyl)-thiazolium chloride]
Breaking Anti-AGE ([1]; at 10 mM): 4% and 14% | Breaking Anti-BSA ([1]; at 10 mM): 19% and 25% | melting point: 135 to 136 °C

N=C(N)NN [aminoguanidine]
aortic wall protein cross-linking [6]: diminishes | immunoglobulin trapping in the kidney [7]: reduction | increased glomerular basement membrane thickness [8]: prevented | diabetes-induced changes in the deformability of red blood cells [9]: prevent
